What was measured:
mice = assay: In vivo delivery of FLuc-mRNA lipid nanoparticle preparations in mice (IVIS imaging); set-up: In vivo IVIS / In vivo IVIS (liver) / In vivo IVIS (spleen): unit not given here
Summary of the method: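 FLuc-mRNA LNPs given intramuscularly into thigh rectus femoris or intravenously via tail vein, about 75 μL per mouse, 3 mice. D-Luciferin (200 μL, 15 mg/mL) injected i.p. 10–15 min before IVIS imaging at set times after dosing.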

[1] = Particle size and PDI by dynamic light scattering; type: physicochemical
Summary of the method: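 Lipid nanoparticle solution (about 0.04 mg/mL mRNA) diluted in ultrapure water and particle size measured by dynamic light scattering on a Malvern instrument. Sample then further diluted with water for potential measurement.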

Delta-S protein = assay: In vivo immunization with Delta Spike mRNA LNP, serum ELISA for specific antibody; set-up: species or system mice; conditions: serum after second administration; IV
Protocol: Lipid nanoparticles encapsulating the nucleic acid drugs were prepared according to step 2. The mRNA was replaced with Delta Spike full length mRNA (Shanghai Zhaowei Science and Technology Development Co., Ltd.) and then administered to the mice at a dose of 5 μg per mouse, and on the 14th day after the first immunization, the whole blood of the mice was collected by canthus sampling, and the drug administration was repeated for the second immunization. On the 14th day after the second immunization, the whole blood was collected from mice by canthus sampling. The whole blood was centrifuged at 5000 rcf for 5 mn, and the supernatant was centrifuged at 10000 rcf for 5 min to obtain the serum, which was aliquated into serial tubes and stored in the refrigerator at −20° C.
• 9.2.1 Coating: Add 100 μL of 0.2 μg/100 μL Delta-S protein (Novoprotein Scientific Inc.) dilution solution to each well, and leave it in the refrigerator at 4° C. overnight. • 9.2.2 Washing: Add 200 μL of PBST (PBS buffer solution containing 0.05% Tween-20 at pH 7.4) to each well and wash three times. • 9.2.3 Blocking: Add 200 μL of 5% (w/v) BSA-PBS solution (BSA bovine serum albumin, Bioss Biotechnology Co., Ltd.) to each well, and shake for 2 h at 50 rcf at room temperature using a shaker. • 9.2.4 Washing: Add 200 μL of PBST to each well to wash once. • 9.2.5 Adding samples: Add 100 μL of serum diluted 200 times with PBS (0.5 μL of serum) to each well (for the ELISA titer assay, serum diluted 200 times, 800 times, 3200 times, 12800 times, 51200 times, 204800 times), and shake at room temperature for 2 h at 50 rcf using a shaker. • 9.2.6 Washing: Add 200 μL of PBST into each well for three times. • 9.2.7 Adding detection antibody: Add 100 μL of HRP-labeled goat anti-mouse IgG detection antibody (0.1 μL of antibody master batch) (Sangon Biotech (Shanghai) Co., Ltd.) diluted 1000-fold into each well, and shake at 50 rcf for 1 h at room temperature using a shaker. • 9.2.8 Washing: Add 200 μL of PBST to each well and wash three times. • 9.2.9 Adding TMB (Beijing Solarbio Science & Technology Co., Ltd.): Add 50 μL of TMB mixture with the volume ratio of liquid A:liquid B of 1:1 to each well, and react for 5 mn (ELISA of blood sample I), 7 min 58 sec (ELISA of blood sample II), and react for about 5 min (ELISA titer of blood sample II). • 9.2.10 Adding phosphate (Aladdin Reagent (Shanghai) Co., Ltd.): add 50 μL of 1 mol/L phosphate per well to terminate the reaction. • 9.2.11 Detection: Use multi-function plate reader for detection. 9.3. Neutralization Antibody Levels Detected by Pseudovirus Neutralization Assay • 9.3.1 Cell seeding: 293T-ACE2 cells (Fubio (Suzhou) Biomedical Technology Co., Ltd.) were inoculated with 1×10^5 cells in each well of a 48-well plate at a concentration of 1×10^5 cells in 300 μL of DMEM medium (containing 10% heat-inactivated FBS without bispecific antibody), the 48-well plate was labeled with information such as “number, cell type, number of generations, medium type, date and name”, and then the cells were cultured in a cell culture incubator at 37° C. with 5% CO2 for 18 hours. • 9.3.2 Before the pseudovirus transfection operation, prepare an ice box, re-dissolve the serum to be used on ice, thaw on ice the virus from the −25° C. refrigerator. After thawing, the serum and pseudovirus were flicked homogenously and centrifuged with a palm centrifuge. • 9.3.3 Examine the neutralization antibody with serum diluted in different ratios: use complete culture medium to dilute the pseudovirus (Fubio (Suzhou) Biomedical Technology Co., Ltd.) and mouse serum respectively, mix them well, and then dilute them 40-fold, 100-fold, 250-fold and 625-fold according to the final concentration of the cells of incubation. […]

[2] = Table 4, molar ratio 1.40:11.15:38.95:48.50, N/P 40, IM formulation
[3] = Table 4, molar ratio 1.50:16.00:34.00:48.50, N/P 55, IV formulation

In the case of `CCCCCCCCCCCCOC(=O)C(O)CN(CCN1CCN(CCN(CC(O)C(=O)OCCCCCCCCCCCC)CC(O)C(=O)OCCCCCCCCCCCC)CC1)CCN(CC(O)C(=O)OCCCCCCCCCCCC)CC(O)C(=O)OCCCCCCCCCCCC` (centres unmarked) [Compound L0199], the “In vivo IVIS” value (mice; Table 2, IM, whole body scan) is reported as 2.19 × 10^7, the “In vivo IVIS” value (mice; Table 2, IV, whole body scan, molar ratio DMG-PEG2000:DSPC:Chol:Lipid and N/P) is reported as 1.07 × 10^9 and the “In vivo IVIS” value (mice; Table 4, IM) is reported as 5.93 × 10^6. The “In vivo IVIS” value (mice; Table 4, IV) was 9.35 × 10^8, the “in vivo delivery efficiency as compared to the benchmark compound SM102” value (mice; certain formulations, Table 2) was “superior in vivo delivery efficiency” and the “Particle size (nm)” value ([1]; Table 2, LNP formulation with mRNA, molar ratio 1.40:11.15:38.95:48.50, N/P 40) was 97.65 ± 0.59 nm. The “Particle size (nm)” value ([1]; Table 2, LNP formulation with mRNA, molar ratio 2.50:7.00:42.00:48.50, N/P 55) was 130.00 ± 1.47 nm, the PDI ([1]; Table 2, polydispersity value, molar ratio 1.40:11.15:38.95:48.50, N/P 40) was 0.11 ± 0.01 and the PDI ([1]; Table 2, polydispersity value, molar ratio 2.50:7.00:42.00:48.50, N/P 55) was 0.12 ± 0.01. For the same compound, the PDI [1, 2] was 0.09 ± 0.02, the “Particle size (nm)” value [1, 2] was 123.50 ± 0.36 nm and the PDI [1, 3] was 0.10 ± 0.02. For the same compound, the “Particle size (nm)” value [1, 3] was 147.57 ± 1.17 nm and the “OD 450 nm-630 nm” value (Delta-S protein) was 1.52.
